According to patent publication US20260062388A1, “POLYMORPHIC FORM OF NEPICASTAT ACID ADDITION SALT, PREPARATION METHOD THEREFOR AND USE THEREOF” (Jiangsu Yahong Meditech Co., Ltd., priority 2022, published 2026):

Tests used:
[1] = Approximate solubility test on crystal forms of hydrochloride salt of nepicastat at room temperature; assay type: physicochemical; conditions: thermodynamic from solid, room temperature
[2] = Dynamic vapor sorption (DVS) hygroscopicity; assay type: physicochemical
Experimental: DVS curves are acquired on DVS Intrinsic from SMS (Surface Measurement Systems). • Testing temperature: 25° C. • Sample amount: 10-20 mg • dm/dt: 0.002%/min; • RH range: 0% RH-95% RH-0% RH • RH gradient: 10%

[3] = Long-term stability test (25° C./60% RH) of crystal form I; assay type: physicochemical; conditions: for Moisture (KF, w/w %) / Related substances (w/w %): Total impurities / Chiral purity (%) / Content (HPLC, w/w %): 25° C. ± 2° C./60% RH ± 5% RH; for Chiral purity (%): S-enantiomer; for Content (HPLC, w/w %): deducting residual solvent(s) and moisture
[4] = Accelerated stability test (40° C./75% RH) of crystal form I; assay type: physicochemical; conditions: for Moisture (KF, w/w %) / Related substances (w/w %): Total impurities / Chiral purity (%) / Content (HPLC, w/w %): 40° C. ± 2° C./75% RH ± 5% RH; for Chiral purity (%): S-enantiomer; for Content (HPLC, w/w %): deducting residual solvent(s) and moisture
[5] = Stability studies under relatively harsh conditions (40° C., 40° C./75% RH, 60° C., 60° C./75% RH) on crystal forms I and II; assay type: physicochemical; conditions: for crystal form stability (XRPD pattern): 15 days
[6] = Bioavailability test, intravenous and oral administration to mice; conditions: mouse, in vivo, IV 15 mg/kg, PO 30 mg/kg
From the text: The crystal forms I and II of hydrochloride salt of nepicastat and the crystal forms of other acid addition salts of nepicastat in Table 31 were taken, and administered intravenously and orally to mice respectively, wherein: • the formulation for intravenous (IV) administration was: 5% (v/v) DMSO+10% (v/v) Solutol HS 15+85% (v/v) physiological saline; • the formulation for oral (PO) administration was: 0.5% (v/v) MC4000 aqueous solution (MC: methylcellulose).
The specific administration was as follows: • Experiment: three mice were subjected to the test in parallel for each formulation; • Body weight: about 30 g • Administration route: IV; PO • Dose administered: IV-15 mg/kg; PO-30 mg/kg; • Before administration: fasting for 12 hours before administration, and allowing mice to drink water; • After administration: allowing mice to drink water, and feeding within 2 hours after administration; • Blood collecting site: the vein at a hind leg • Blood collecting times: IV—0.083, 0.25, 0.5, 1, 2, 4, 6, 8, 24 h; • PO—0.25, 0.5, 1, 2, 4, 6, 8, 24 h.
Due to very close solubilities of the crystal forms I and II of hydrochloride salt of nepicastat in water, it was found in the experiment that both of them obtained clear solutions upon preparing the administration samples.

`Cl.NCc1c[nH]c(=S)n1[C@H]1CCc2c(F)cc(F)cc2C1.O` [crystal form I of hydrochloride salt, (S)-5-aminomethyl-1-(5,7-difluoro-1,2,3,4-tetrahydronaphthalen-2-yl)-1,3-dihydroimidazole-2-thione hydrochloride monohydrate] showed a solubility ([1]; aqueous with cosolvent or surfactant or cyclodextrin, solvent 15% Isopropanol) of 20000 to 27000 µg/mL, a solubility ([1]; aqueous with cosolvent or surfactant or cyclodextrin, solvent 30% Methanol) of 21000 to 42000 µg/mL and a solubility ([1]; aqueous with cosolvent or surfactant or cyclodextrin, solvent 50% Acetonitrile) of 80000 to 100000 µg/mL. The solubility ([1]; aqueous with cosolvent or surfactant or cyclodextrin, solvent 50% Ethanol) was 20000 to 27000 µg/mL, the solubility ([1]; aqueous with cosolvent or surfactant or cyclodextrin, solvent 50% Isopropanol) was 40000 to 80000 µg/mL and the solubility ([1]; aqueous with cosolvent or surfactant or cyclodextrin, solvent 50% Tetrahydrofuran) was 100000 to 130000 µg/mL. The solubility ([1]; organic solvent or mixture, solvent 1,4-Dioxane) was < 1000 µg/mL, the solubility ([1]; organic solvent or mixture, solvent 2-Butanone) was < 1000 µg/mL and the solubility ([1]; organic solvent or mixture, solvent 2-Methyltetrahydrofuran) was < 1000 µg/mL. The solubility ([1]; organic solvent or mixture, solvent Acetone) was < 1000 µg/mL, the solubility ([1]; organic solvent or mixture, solvent Acetonitrile) was 40 µg/mL and the solubility ([1]; organic solvent or mixture, solvent Chloroform) was 380 µg/mL. The solubility ([1]; organic solvent or mixture, solvent Dichloromethane) was < 10 µg/mL, the solubility ([1]; organic solvent or mixture, solvent Ethanol) was 6500 µg/mL and the solubility ([1]; organic solvent or mixture, solvent Ethyl acetate) was 10 µg/mL. The solubility ([1]; organic solvent or mixture, solvent Isopropanol) was 6000 µg/mL, the solubility ([1]; organic solvent or mixture, solvent Methanol) was 33000 µg/mL and the solubility ([1]; organic solvent or mixture, solvent Methyl tert-butyl ether) was < 1000 µg/mL. For the same compound, the solubility ([1]; organic solvent or mixture, solvent N-hexane) was < 10 µg/mL, the solubility ([1]; organic solvent or mixture, solvent Propanol) was 11700 µg/mL and the solubility ([1]; organic solvent or mixture, solvent Propylene carbonate) was 140 µg/mL. The solubility ([1]; organic solvent or mixture, solvent Tetrahydrofuran) was 90 µg/mL, the solubility ([1]; solvent Purified water) was 7400 µg/mL and the “hygroscopicity of the sample” value ([2]; DVS, 0% RH to 80% RH) was “slight hygroscopicity”. The “weight gain by hygroscopicity” value ([2]; DVS, from 0% RH to 80% RH, 25° C.) was “about 1.036%”, the “crystal form before and after the DVS test” value ([2]; XRPD before and after DVS) was “remained unchanged” and the “Moisture (KF, w/w %)” value ([3]; 3 months) was 5.7 w/w %. For the same compound, the “Related substances (w/w %): Total impurities” value (“Related substances (w/w %)” for short) ([3]; 3 months) was “not detected”, the “Chiral purity (%)” value ([3]; 3 months) was 99.8% and the “Content (HPLC, w/w %)” value ([3]; 3 months) was 100.8 w/w %. For the same compound, the “Moisture (KF, w/w %)” value ([3]; 6 months) was 6.0 w/w %, the “Related substances (w/w %)” value ([3]; 6 months) was “not detected” and the “Chiral purity (%)” value ([3]; 6 months) was 99.8%. For the same compound, the “Content (HPLC, w/w %)” value ([3]; 6 months) was 100.3 w/w %, the “Moisture (KF, w/w %)” value ([3]; 9 months) was 6.3 w/w % and the “Related substances (w/w %)” value ([3]; 9 months) was “not detected”. The “Chiral purity (%)” value ([3]; 9 months) was 99.8%, the “Content (HPLC, w/w %)” value ([3]; 9 months) was 100.5 w/w % and the “Moisture (KF, w/w %)” value ([3]; 12 months) was 6.2 w/w %. The “Related substances (w/w %)” value ([3]; 12 months) was “not detected”, the “Chiral purity (%)” value ([3]; 12 months) was 99.8% and the “Content (HPLC, w/w %)” value ([3]; 12 months) was 100.0 w/w %. For the same compound, the “Moisture (KF, w/w %)” value ([3]; Initial) was 5.9 w/w %, the “Related substances (w/w %)” value ([3]; Initial) was “not detected” and the “Chiral purity (%)” value ([3]; Initial) was 99.8%. For the same compound, the “Content (HPLC, w/w %)” value ([3]; Initial) was 100.3 w/w %, the long-term stability ([3]; 25° C./60% RH, double-layer polyethylene bag) was “no significant change in the detection results” and the “Moisture (KF, w/w %)” value ([4]; 1 months) was 5.8 w/w %. The “Related substances (w/w %)” value ([4]; 1 months) was “not detected”, the “Chiral purity (%)” value ([4]; 1 months) was 99.8% and the “Content (HPLC, w/w %)” value ([4]; 1 months) was 100.4 w/w %. For the same compound, the “Moisture (KF, w/w %)” value ([4]; 2 months) was 5.7 w/w %, the “Related substances (w/w %)” value ([4]; 2 months) was “not detected” and the “Chiral purity (%)” value ([4]; 2 months) was 99.8%. The “Content (HPLC, w/w %)” value ([4]; 2 months) was 99.6 w/w %, the “Moisture (KF, w/w %)” value ([4]; 3 months) was 5.7 w/w % and the “Related substances (w/w %)” value ([4]; 3 months) was “not detected”. The “Chiral purity (%)” value ([4]; 3 months) was 99.8%, the “Content (HPLC, w/w %)” value ([4]; 3 months) was 100.4 w/w % and the “Moisture (KF, w/w %)” value ([4]; 6 months) was 5.8 w/w %. The “Related substances (w/w %)” value ([4]; 6 months) was “not detected”, the “Chiral purity (%)” value ([4]; 6 months) was 99.8% and the “Content (HPLC, w/w %)” value ([4]; 6 months) was 100.1 w/w %. For the same compound, the “Moisture (KF, w/w %)” value ([4]; Initial) was 5.9 w/w %, the “Related substances (w/w %)” value ([4]; Initial) was “not detected” and the “Chiral purity (%)” value ([4]; Initial) was 99.8%. The “Content (HPLC, w/w %)” value ([4]; Initial) was 100.3 w/w %, the accelerated stability ([4]; 40° C./75% RH, double-layer polyethylene bag) was “no significant change in the detection results” and the “crystal form stability (XRPD pattern)” value ([5]; 60° C.) was “stable”. For the same compound, the “crystal form stability (XRPD pattern)” value ([5]; 60° C./75% RH) was “stable”, the “impurity produced due to degradation” value ([5]; solid left at 60° C. for 15 days) was “no significant impurity to produce due to degradation” and the “impurity produced due to degradation” value ([5]; solid left at 60° C./75% RH for 15 days) was “no significant impurity to produce due to degradation”. For the same compound, the bioavailability [6] was > 70%.
